The values that follow are results of earlier work, collected in paper PMC4950319, “Kinetic and structural characterization of amyloid‐β peptide hydrolysis by human angiotensin‐1‐converting enzyme” (The Febs Journal, 2016).

The test system of the series is ACE. The note with it: recombinant truncated domains only; cited from earlier work. An excerpt: Based on our results and the synergistic effect that the C‐domain exerts on the N‐domain, the C‐domain activity is likely to be important in vivo. […] This observation is supported by the architecture of the central cavity found in tACE (human testis ACE, C‐domain equivalent) crystal structure and the chloride‐dependent substrate interactions 54, 57. The latter study, ...

As to Aβ(1–40): larger Aβ(1–40) substrate, the “competition with hippuryl‐L‐histidyl‐ L‐leucine” value is given as “did not out‐compete”.
